Data set [1] concerns infiltration of immune cells into the spinal cord. Put plainly: Histology of immune cell infiltration into the spinal cord in EAE mice (eosin/hematoxylin). Format: in vivo, SJL female mice. The settings on record: sixty days following injection of PLP; vs control non-treated mice. As to the method: (§1) Histology Following s.c. injection of PLP (139-151) mixed with CFA as well as two pertussis-toxin injections and appearance of paralysis signs in the mice (usually after 9-11 days after initiation of EAE) treatment of mice began.
(§2) The treatments were given daily, five times a week and usually continued for about 60 days. GA were given s.c. (at an injection dose of 1 mg/mouse), and CBD at a dose of 5 mg/kg were administrated i.p. (intraperitoneal).
Studies of monotherapies (CBD or Copaxone) and the combination therapy (CBD plus Copaxone) also included histological studies of infiltration of immune cells into the spinal cord in EAE mice (i.e., MS core pathology).

For the next data set, the system named is EAE model in mice. Put plainly: Suppression of PLP (139-151)-induced relapsing-remitting EAE, daily clinical score. The settings on record: monotherapy vs control (vehicle); CBD 5 mg/kg i.p., Copaxone 1 mg/mouse s.c., daily five times a week; FIG. 1-3. It is filed as in vivo, SJL/J female mice.
From the text: SJL/J female mice were purchased from Harlen. Mice at the age of 6-7 weeks old were used to the in the experiments described below. All the experiments were done in accordance with the protocol approved by the Ethics Committee of the Hebrew University of Jerusalem. The mice were housed in cages with free access to food and water. They were maintained in 12 hr. light/dark cycle at room temperature.
Mice were immunized with PLP (139-151) emulsified in CFA together with pertussis vaccine according to the method described in Hooke Laboratories protocols (http://hookelabs.com/protocols/eaeAISJL). PLP is used to induce relapsing-remitting (RR)-EAE model. In the EAE experiments, SJL/J female mice at an age of 6-7 weeks old were used. Mice were observed daily for the appearance of neurological paralytic symptoms (6-7 mice/group), and were scored in scale from 0-5 denoting as follows:
Raw p-value were obtained from exact one-tail Mann Whitney tests and adjusted for multiple comparisons (within each experiment) using Holm modification of the Bonferroni correction
as §1
The treatments were given daily, five times a week and usually continued for about 60 days. […]

Data set [2] has as its system skin at the site of subcutaneous Copaxone injection. Put plainly: Cutaneous wound at the site of repeated s.c. Copaxone injection in EAE mice. Format: in vivo, SJL/J female mice. The protocol: as §2
In mice treated with the Copaxone only (2 out of 7 mice), a skin lesion developed on the back at the site of repeated Copaxone injections.

For data set [3], the system named is acute EAE. The settings on record: oral GA, mice; cited from earlier work.
Data set [4] concerns acute EAE. The settings on record: oral GA, rhesus monkeys; cited from earlier work.
The subject of data set [5] is acute EAE. The settings on record: oral GA, rats; cited from earlier work.

Entries after “also recorded” stand apart in the source; their conditions may differ. Like-named read-outs stand apart in the source and are kept apart here.

In the case of `C=C(C)[C@@H]1CCC(C)=C[C@H]1c1c(O)cc(CCCCC)cc1O` [CBD, 2-[(1R,6R)-6-isopropenyl-3-methylcyclohex-2-en-1-yl]-5-pentylbenzene-1,3-diol], the “infiltration of immune cells into the white section of the spinal cord” value in data set [1] is “almost total reduction of such infiltration”. Also, the clinical score result with EAE model in mice is given as “significant decrease in clinical score; also recorded: significantly decreased clinical score”. Also, in data set [2] (CBD 5 mg/kg i.p. with or without Copaxone 1 mg/mouse s.c.), the “skin lesions (cutaneous wound) at the injection site, in words” value is “No suchlesions were observed”.
As to Glatiramer acetate [Copaxone], in data set [1], the “infiltration of immune cells into the white section of the spinal cord” value is listed as “almost total reduction of such infiltration”. For the same compound, the “effect on acute EAE” value with acute EAE [3], in the data set with acute EAE [4] and with acute EAE [5] was “suppress acute EAE” each time. Moreover, the clinical score entry with EAE model in mice is “significantly decreased clinical score”. In data set [2] (Copaxone only, 1 mg/mouse s.c.), the “skin lesion developed at the site of repeated Copaxone injections (incidence)” value was 2 out of 7.

The values above are taken from US20190314297A1, “COMBINATION THERAPY OF CBD AND COPAXONE” (TO PHARMACEUTICALS LLC, priority 2016, published 2019).
